The structures appear in SMILES notation.

Consider two molecules from article PMC12430443, “Discovery of Novel Benzamide-Based Sigma-1 Receptor Agonists with Enhanced Selectivity and Safety” (Molecules, 2025).

The target in one test is T1, S2R (Homo sapiens, UniProt Q5BJF2).
T1 construct: For the S2R assay, Jurkat cell membranes (10–20 μg protein/tube) were incubated at room temperature for 1 h; host or cells: Jurkat cell membranes
Kind of test: S2R competitive radioligand binding, [3H]-DTG with excess (+)-pentazocine, Jurkat cell membranes. The conditions noted are these: [3H]-DTG displacement with excess (+)-pentazocine, n = 2. The text has this:
S1R and S2R affinities were classically evaluated through competitive binding assays using radioligands, following the protocol described by Ganapathy et al.. The selective radioligand [^3H] (+)-pentazocine was employed as the classic prototypical ligand, selectively binding to the orthosteric S1R-binding sites. […] Jurkat cell membranes served as the receptor source in both assays. The equilibrium dissociation constants (Ki) for S1R and S2R were derived from the IC50 values of each compound, and selectivity ratios (S2R/S1R) were subsequently calculated (Table 1, Figures S2 and S3).
Binding assays were performed by Eurofins Cerep (Poitiers, France) according to the protocol of Ganapathy. […] For the S2R assay, Jurkat cell membranes (10–20 μg protein/tube) were incubated at room temperature for 1 h in the same buffer with [^3H]-DTG (25 nM) in the presence of (+)-pentazocine (1 μM) to saturate S1R, along with a range of test compound concentrations. Bound radioactivity was quantified by liquid scintillation counting. Nonspecific binding was determined under identical conditions in the presence of 10 μM unlabeled haloperidol. The IC50 values (concentration causing a half-maximal inhibition of control-specific binding) and Hill coefficients (nH) were determined by non-linear regression analysis of the competition curves generated with mean replicate values using Hill equation curve-fitting. This analysis was performed using software developed at Cerep (Hill software) and validated by comparison with data generated by the commercial software SigmaPlot ®4.0 for Windows® (©1997 by SPSS Inc.). Inhibition constants (Ki) were calculated from IC50 values using the method of Cheng and Prusoff.

The target in a further test is T2, S1R-BiP complex (Cricetulus griseus, UniProt A0A3L7I3A5).
T2 construct: host or cells: CHO cells
Kind of test: S1R-BiP complex dissociation, co-immunoprecipitation and BiP ELISA in CHO cells. The following applies: for Dissociation of the S1R-BiP complex (in words): 1 and 10 µM, 30 min incubation, CHO cells, n = 6. The test is classed as cell-based. The procedure:
The interaction between S1R and BiP provides a reliable assay to identify S1R ligands by monitoring the dynamics of the S1R-BiP complex. In this assay, the known S1R agonist PRE-084 and antagonist NE-100 were used as controls (Figure 3).
The ability of the compounds to promote dissociation of the S1R–BiP complex was assessed by Amylgen (Montferrier-sur-Lez, France) as described in [22, 23]. CHO cells were treated with the test compounds for 30 min at 37 °C, followed by crosslinking with dithiobis(succinimidyl propionate) (DSP; Thermo Scientific, Waltham, MA, USA). Cells were lysed after 15 min on ice, and the lysates were centrifuged. Supernatants were incubated overnight at 4 °C with an anti-S1R antibody (Abcam, Cambridge, UK), and then with Protein A-Sepharose (Invitrogen). After the first centrifugation, pellets were resuspended in radioimmunoprecipitation assay (RIPA) buffer, centrifuged again, and resuspended in 2× sample buffer/bMCE buffer. Following a third centrifugation, the supernatants were analyzed for BiP immunoreactivity using an ELISA kit (SEC343Mu, USCNK Life Sciences, Wuhan, China).
Figure 3 In vitro evaluation of agonist activity of compounds 2, 3, and 6: The effects of compounds 2, 3, and 6 at 1 and 10 µM on the S1R-BiP association after 30 min of incubation were analyzed by co-immunoprecipitation using an anti-S1R antibody (red). BiP levels were quantified by ELISA. PRE-084 (white) and NE-100 (black) served as the reference agonist and antagonist, respectively (10 µM). Agonist activity was confirmed by its blockade with NE-100 (black hatching). […] Data represent the mean ± SEM from n = 6 per condition. Statistical significance was assessed using Dunnett’s test: *** p < 0.0001, * p < 0.05 vs. untreated control; ### p < 0.0001, # p < 0.05 for NE-100 blockade.

Test [1] deals with serotonin 5-HT2A receptor (Homo sapiens, UniProt P28223). Kind of test: Off-target panel, aequorin functional assay. It is filed as cell-based. The conditions noted are these: 10 µM, duplicate; % inhibition of reference agonist activity. The procedure: Among the synthesized compounds, four derivatives were selected based on their affinity and selectivity profiles. […] The remaining compounds (2, 3, 6, and 7) were assessed for their agonist and antagonist activities across a panel of 58 receptors relevant to CNS disorders, including serotonin, adenosine, adrenergic, cannabinoid, dopamine, histamine, and muscarinic receptors. These assays were conducted at a concentration of 10 µM, in duplicate, utilizing aequorin [19], cAMP HTRF™ [20], and GTPγS binding assays, as detailed in Table 2. […] Specifically, compound 6 antagonized four receptors (5-HT2A, 5-HT2C, α1a, H1), while compound 7 was active against five receptors (5-HT2A, 5-HT3, α1a, H1, M1).
Rapidly, the tests were performed by Euroscreen (https://euroscreenfast.com/) with recombinant human G-coupled receptor-expressing cell lines using aequorin functional assays for serotonin 5-HT2A, 5-HT2B, 5-HT2C, 5-HT3, and 5-HT5A, adrenergic α1a and α1b, angiotensin AT1, cholesistokinin CCFK1, endothelin ETA, histamine H1, muscarinic M1 and M3, neurokinin NK1 and NK2, vasopressin V1a, and vasoactive intestinal peptide VPAC1 receptor analysis. Then, cAMP HTRF^TM assays were used to analyze serotonin 5-HT1A, 5-HT4E, 5-HT6, and 5-HT7, adenosine A1, A2A, and A3, adrenergic β1 and β2, cannabinoid CB1, dopamine D1, histamine H2, and neuropeptide Y NPY receptors. GTPγS^35 assays were used to analyze serotonin 5-HT1B, adrenergic α2a and α2b, dopamine D2, muscarinic M2 and M4, opioid δ, κ and µ, and somatostatine SST4 receptors.
Agonist and antagonist activities of the test compound are expressed as the percentage of the activity of the reference agonist at its EC100 concentration or the percentage of inhibition of the reference agonist activity at its EC80 concentration, respectively.
For the aequorin assays, different cell lines co-expressing the receptors were grown in specific culture media and incubated for 4 h with coelenterazine h. For agonist testing, cell suspensions were mixed with test or reference agonists in a 96-well plate. For antagonist testing, the reference agonist at its EC80 (final concentration) was injected to the mix the containing cells and the tested compound. The resulting emission of light was recorded using the Hamamatsu Functional Drug Screening System 6000 [19].

T2 sequence (A0A3L7I3A5 1-223, one chain of several): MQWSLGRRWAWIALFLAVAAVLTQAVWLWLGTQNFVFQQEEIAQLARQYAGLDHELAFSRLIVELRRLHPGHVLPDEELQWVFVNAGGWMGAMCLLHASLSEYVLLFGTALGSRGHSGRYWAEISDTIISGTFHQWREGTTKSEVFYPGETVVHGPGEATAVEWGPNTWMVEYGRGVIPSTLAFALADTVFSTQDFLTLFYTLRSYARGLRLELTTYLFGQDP
T1 sequence (Q5BJF2 whole entry): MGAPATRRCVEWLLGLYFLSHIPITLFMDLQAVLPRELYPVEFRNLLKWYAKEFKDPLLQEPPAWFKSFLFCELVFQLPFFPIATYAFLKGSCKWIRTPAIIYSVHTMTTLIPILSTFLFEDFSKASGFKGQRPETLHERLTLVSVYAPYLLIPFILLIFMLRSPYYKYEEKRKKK
Sequence of serotonin 5-HT2A receptor (P28223 whole entry): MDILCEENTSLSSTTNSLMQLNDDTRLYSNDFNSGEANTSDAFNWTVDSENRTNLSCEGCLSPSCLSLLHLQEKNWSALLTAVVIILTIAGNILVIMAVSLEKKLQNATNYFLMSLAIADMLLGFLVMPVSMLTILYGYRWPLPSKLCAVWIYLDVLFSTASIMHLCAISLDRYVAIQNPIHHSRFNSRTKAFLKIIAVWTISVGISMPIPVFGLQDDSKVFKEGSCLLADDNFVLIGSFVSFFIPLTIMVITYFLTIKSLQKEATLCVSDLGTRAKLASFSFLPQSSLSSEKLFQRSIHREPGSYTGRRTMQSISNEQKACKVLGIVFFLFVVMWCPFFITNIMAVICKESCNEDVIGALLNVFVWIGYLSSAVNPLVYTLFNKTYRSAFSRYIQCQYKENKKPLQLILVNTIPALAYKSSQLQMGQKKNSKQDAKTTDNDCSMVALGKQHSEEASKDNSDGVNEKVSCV

On to `CN(CCC(=O)NCc1ccc(C#N)cc1)Cc1ccccc1` [Compound 6, 3-(Benzylmethylamino)-N-(4-cyanobenzyl)propanamide], for which the IC50 at S2R was 2400 nM. The “Dissociation of the S1R-BiP complex (in words)” value at S1R-BiP complex is “slight and less significant reduction”. For the same molecule, the “5-HT2A [b] antagonist activity” value in test [1] is reported as “antagonized”.

`CN(CCC(=O)NCc1cccc(Cl)c1)Cc1ccccc1` [Compound 2, 3-(Benzylmethylamino)-N-(3-chlorobenzyl)propanamide] registered an IC50 at S2R of 270 nM. Also, the “Dissociation of the S1R-BiP complex (in words)” value at S1R-BiP complex is on record as “significant, dose-dependent dissociation”. Also, the “Dissociation of S1R-BiP complex in the presence of NE-100 (in words)” value at S1R-BiP complex (co-treatment with NE-100 (10 µM)) is on record as “completely inhibited”. Moreover, in test [1], the “5-HT2A [b] antagonist activity” value is 72%.
